Source: ChEMBL document CHEMBL1201862, “PubChem BioAssay data set” (2004)
Calls of active or inactive are those of the source.

Legend:
[1] = target: 5-hydroxytryptamine receptor 2A (Mus musculus, UniProt P35363); assay type: functional, cell-based;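 note: CHO-K1 cells with tagged receptor and beta-arrestin; agonist potency measured as compound-induced activation of the receptor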
Mu-type opioid receptor = Mu-type opioid receptor (Homo sapiens, UniProt P35372); assay type: functional, cell-based;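 note: U2OS cells with beta-arrestin recruitment to OPRM1 by beta-gal complementation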
[2] = target: T1, Mannose-6-phosphate isomerase (Homo sapiens, UniProt P34949); assay: MPI enzyme activity inhibition – biochemical, fluorescence intensity, coupled assay, primary screen (AID 1209)
T1 sequence (P34949 whole entry): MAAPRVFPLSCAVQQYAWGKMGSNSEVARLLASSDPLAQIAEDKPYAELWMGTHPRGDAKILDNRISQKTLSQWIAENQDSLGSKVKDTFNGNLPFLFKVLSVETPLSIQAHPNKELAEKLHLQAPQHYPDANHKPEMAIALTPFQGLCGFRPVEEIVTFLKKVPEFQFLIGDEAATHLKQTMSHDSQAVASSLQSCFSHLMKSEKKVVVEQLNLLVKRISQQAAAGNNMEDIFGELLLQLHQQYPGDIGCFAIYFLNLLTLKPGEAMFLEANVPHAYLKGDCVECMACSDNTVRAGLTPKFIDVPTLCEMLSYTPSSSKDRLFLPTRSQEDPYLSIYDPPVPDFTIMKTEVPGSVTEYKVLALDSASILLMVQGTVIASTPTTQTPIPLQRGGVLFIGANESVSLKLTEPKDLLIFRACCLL

[3] = target: T1, Mannose-6-phosphate isomerase; assay: MPI inhibition at elevated mannose 6-phosphate – biochemical, fluorescence intensity, high mannose 6-phosphate, primary screen (AID 1220)
[4] = target: Heat shock protein HSP 90-alpha (Homo sapiens, UniProt P07900); assay: Luminescence-based dose response biochemical high throughput screening assay for inhibitors of the Heat Shock Protein 90 (HSP90). [Related pubchem assays: 1831 (Summary AID.), 1846 (Confirmation screen.), 1789 (Primary screen.)]
[5] = viability loss in HeLa cells – cytotoxicity control for MgcRacGAP inhibitor project, dose response (AID 624300); assay type: functional
[6] = target: T2, Rac GTPase-activating protein 1 (Homo sapiens, UniProt Q9H0H5); assay: blockers of MgcRacGAP-driven Rac1 GTP hydrolysis – biochemical, ADP Hunter fluorescence, primary and confirmatory, confirmation (AID 624330); assay type: functional
T2 sequence (Q9H0H5 whole entry): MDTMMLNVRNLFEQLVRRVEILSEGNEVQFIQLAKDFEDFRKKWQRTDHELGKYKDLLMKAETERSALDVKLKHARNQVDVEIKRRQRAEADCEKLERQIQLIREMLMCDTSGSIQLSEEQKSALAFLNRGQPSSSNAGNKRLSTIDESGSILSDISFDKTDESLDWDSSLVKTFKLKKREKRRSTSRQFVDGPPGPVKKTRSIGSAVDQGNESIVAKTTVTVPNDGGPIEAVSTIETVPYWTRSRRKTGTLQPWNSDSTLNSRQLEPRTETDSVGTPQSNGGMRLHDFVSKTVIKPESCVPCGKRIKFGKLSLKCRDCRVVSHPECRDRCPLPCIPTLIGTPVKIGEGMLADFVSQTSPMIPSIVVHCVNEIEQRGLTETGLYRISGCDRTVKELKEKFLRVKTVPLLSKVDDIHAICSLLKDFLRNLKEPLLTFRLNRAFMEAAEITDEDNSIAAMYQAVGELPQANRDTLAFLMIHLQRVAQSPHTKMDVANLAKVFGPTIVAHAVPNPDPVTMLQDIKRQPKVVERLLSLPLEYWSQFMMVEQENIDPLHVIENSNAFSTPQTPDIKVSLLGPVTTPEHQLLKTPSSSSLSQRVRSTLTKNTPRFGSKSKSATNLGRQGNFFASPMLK

Major prion protein = Major prion protein (Homo sapiens, UniProt P04156); assay type: functional, cell-based
Large T antigen = Large T antigen (Simian virus 40, UniProt P03070); assay type: functional, Betapolyomavirus macacae;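 note: Confirmatory-stage PubChem screen for compounds that inhibit SV40 T antigen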
[7] = target: ATP-dependent molecular chaperone HSP82 (Candida albicans (strain WO-1) (Yeast), UniProt C4YTQ8); assay: steroid-induced GRE reporter decrease in yeast – S. cerevisiae, luminescence, Hsp90 inhibitor project, dose response (AID 2400); assay type: functional, cell-based;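 note: beta-galactosidase luminescence from glucocorticoid response element reporter as proxy for Hsp90 function; inhibitor potency where signal loss means Hsp90 inhibition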
[8] = target: T3, Serine/threonine-protein phosphatase (Candida dubliniensis (strain CD36 / CBS 7987 / NCPF 3949 / NRRLY-17841) (Yeast), UniProt B9W6M3); assay: blockers of CaCl2-induced CDRE-lacZ signaling – S. cerevisiae, luminescence, secondary, dose response (AID 2388); assay type: functional, cell-based;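 note: yeast reporter cells carrying a calcineurin-responsive lacZ construct stimulated with calcium chloride; luminescent beta-galactosidase reporter signal in whole cells rather than isolated phosphatase activity; potency for inhibition where a drop in reporter signal means calcineurin blockade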
T3 sequence (B9W6M3 whole entry): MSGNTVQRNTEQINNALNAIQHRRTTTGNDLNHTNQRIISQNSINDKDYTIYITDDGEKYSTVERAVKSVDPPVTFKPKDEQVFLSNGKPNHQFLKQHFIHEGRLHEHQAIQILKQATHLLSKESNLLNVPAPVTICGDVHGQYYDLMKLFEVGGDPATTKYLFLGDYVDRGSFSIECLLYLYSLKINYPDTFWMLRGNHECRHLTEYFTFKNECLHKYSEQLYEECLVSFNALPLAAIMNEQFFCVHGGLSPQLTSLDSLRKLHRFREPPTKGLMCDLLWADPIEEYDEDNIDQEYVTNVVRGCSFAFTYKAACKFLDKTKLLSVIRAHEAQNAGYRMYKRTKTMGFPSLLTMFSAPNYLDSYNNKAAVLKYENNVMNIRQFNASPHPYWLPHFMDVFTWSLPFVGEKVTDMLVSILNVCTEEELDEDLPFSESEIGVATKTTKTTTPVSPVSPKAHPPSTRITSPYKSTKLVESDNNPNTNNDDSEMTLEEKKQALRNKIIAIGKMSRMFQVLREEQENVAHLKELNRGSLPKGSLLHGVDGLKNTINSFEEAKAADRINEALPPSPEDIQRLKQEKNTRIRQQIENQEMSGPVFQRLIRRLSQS

[9] = fluconazole-exposed Candida albicans growth modulators – fluorescence, retest, confirmation (AID 2467); assay type: functional, cell-based
[10] = NIH-3T3 fibroblast cytotoxicity, dose response, cytotoxicity control, cell-based, fluorescence, Alamar Blue, secondary assay (AID 2327); assay type: functional;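 note: NIH-3T3 mouse fibroblasts cultured with fluconazole at 8 µg/mL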
[11] = target: DNA dC->dU-editing enzyme APOBEC-3A (Homo sapiens, UniProt P31941); assay: A3A deaminase inhibition for selectivity – biochemical, dose response (AID 504722); assay type: functional
[12] = target: T4, Polyadenylate-binding protein 1 (Homo sapiens, UniProt P11940); assay: MLLE binding blockers, Cy5 peptide tracer – biochemical, fluorescence polarization, Cy5-PAM2 peptide, secondary, miRNA deadenylation inhibitor project, dose response (AID 602260); assay type: functional; conditions: read-out: IC50_Mean
[13] = target: DNA dC->dU-editing enzyme APOBEC-3G (Homo sapiens, UniProt Q9HC16); assay: Dose Response confirmation of small molecule APOBEC3G DNA Deaminase Inhibitors via a fluorescence-based single-stranded DNA deaminase assay. [Related pubchem assays (depositor defined):AID493012, AID493028]; assay type: functional
[14] = target: T4, Polyadenylate-binding protein 1; assay: MLLE domain peptide-binding blockers, IC50 – biochemical, fluorescence polarization, FITC-PAM2 peptide, dose response (AID 602259); assay type: functional; conditions: read-out: IC50_Mean
Estrogen receptor beta = Estrogen receptor beta (Homo sapiens, UniProt Q92731);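 note: recombinant ER-beta bound to coactivator SRC1 peptide in presence of estradiol agonist; inhibitors block coactivator peptide binding and lower the FRET signal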
[15] = microbe, parasite or virus in culture; assay type: functional; conditions: Mycobacterium tuberculosis
[16] = inhibition of ADAM10 peptide cleavage – biochemical, FRET peptide substrate, recombinant human ADAM10, selectivity assay for ADAM17 exosite inhibitor project, dose response (AID 743259);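 note: ADAM10 enzyme cleaving a FRET peptide substrate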
[17] = target: Disintegrin and metalloproteinase domain-containing protein 17 (Homo sapiens, UniProt P78536); assay: exosite inhibitors of ADAM17, dose response, biochemical (AID 743260)
[18] = target: Mitogen-activated protein kinase 10 (Homo sapiens, UniProt P53779); assay: Dose response biochemical screening assay for inhibitors of c-Jun N-Terminal Kinase 3 (JNK3). [Related pubchem assays: 746 ]
[19] = Trypanosoma cruzi growth suppression in host cells – NIH3T3 host cells, beta-gal luminescence, confirmation (AID 2044); assay type: functional, cell-based;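 note: intracellular parasites grown in NIH/3T3 mouse fibroblasts as host cells; luminescent beta-galactosidase reporter signal from transgenic T. cruzi replicating inside host cells; inhibitors lower the luminescence signal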
[20] = NIH3T3 cell viability loss – ATP luminescence, mouse fibroblasts, counter-screen, dose response (AID 2010); assay type: functional, cell-based;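 note: cells exposed to compound for about 90 hours before reading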
[21] = intracellular Trypanosoma cruzi inhibitors in host cells – cell-based, plate reader, cherry-pick samples, set 3, dose response (AID 651818); assay type: functional;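 note: compounds incubated with infected cells for about four days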
Paired box protein Pax-8 = Paired box protein Pax-8 (Homo sapiens, UniProt Q06710); assay: PAX8 transcriptional activity inhibition in RMG-I – RMG-I cells, luciferase, cherry-pick, dose response (AID 687027); assay type: functional, cell-based;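 note: luciferase reporter driven by Pax8 target thyroperoxidase promoter measured by SteadyGlo luminescence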
[22] = OVCAR8 cell viability loss – plate reader, dry powder samples, PAX8 project, dose response (AID 743197); assay type: functional, cell-based; conditions: OVCAR-8
[23] = blockers of HIV-1 envelope-mediated cell-cell fusion – cherry-pick, dose response (AID 652057); assay type: functional, cell-based
[24] = HIV-1 AD8 envelope cell-cell fusion blockers – cherry-pick, dose response (AID 652062); assay type: functional, cell-based;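 note: luciferase signal from cell-cell fusion driven by HIV-1 clade B AD8 Env; potency is for inhibitors of fusion seen as a drop in luminescence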
[25] = general mammalian cell viability loss – inhibitor set, cherry-pick, set 2, cytotoxicity control for miR-122 modulator project, dose response (AID 720697); assay type: functional, cell-based

CCCN1CCC[C@H](c2cccc(O)c2)C1
EC50 [1]: 0.711 µM (active)
EC50 (Mu-type opioid receptor): 92.4 µM (inactive)

CC(C)(C)N1C(=O)Cc2c1nc(N)c1c(N)nc(N3CCCCC3CO)c(C#N)c21 (stereo not drawn)
IC50 [2]: > 50 µM (not active)
IC50 [3]: > 50 µM (not active)

CCOc1ccc(-c2nc(CN(Cc3ccccc3)C[C@@H]3CCC(=O)N3)c(C)o2)cc1
IC50 [4]: 3.05 µM (active)

Cn1nccc1C(=O)Nc1ccc(OC(=O)c2ccnn2C)cc1
CC50 [5]: 100 µM (active)
IC50 [6]: 16.7 µM (active)

CCCn1c(N)c(C(=O)CSc2nncs2)c(=O)[nH]c1=O
IC50 (Major prion protein): 5.88 µM (active)
IC50 (cells): > 138 µM (inactive)

CCc1cc(S)n2c(nc3ccccc32)c1C#N
IC50 (Large T antigen): 99.8 µM (active)
EC50 [7]: > 150 µM (inactive)
EC50 [8]: > 180 µM (inactive)
EC50 [9]: 0.254 µM (active)
EC50 [10]: > 150 µM (inactive)

CCn1c(O)nc(CS(=O)(=O)c2ccccc2)c1C
IC50 [11]: > 100 µM (inactive)
IC50 [3]: 1.23 µM (active)
IC50 [12]: > 66 µM (inactive)
IC50 [13]: 6.9 µM (active)
IC50 [14]: > 66 µM (inactive)

COC(=O)CSc1nc(-c2ccccc2)nc2ccc(F)cc12
IC50 (Major prion protein): 2.56 µM (active)
IC50 (cells): > 138 µM (inactive)

O=S(=O)(Nc1ncnc2sc3c(c12)CCC3)c1ccc2ccccc2c1
IC50 (Estrogen receptor beta): 25 µM (active)

Cc1ccnc(Sc2ccc([N+](=O)[O-])cc2[N+](=O)[O-])n1
EC50 [7]: 23.6 µM (active)
EC50 [8]: > 180 µM (inactive)
EC50 [9]: 0.91 µM (active)
EC50 [10]: 14.2 µM (active)
CC50 [15]: 7.25 µM (active)

CCN(c1ccccc1)S(=O)(=O)c1ccc(N2CCN(c3ccc(O)cc3)CC2)nc1
CC50 [5]: 100 µM (active)
IC50 [6]: 40.5 µM (active)

CCOC(=O)NC(=O)CSc1cc(C)c2cc(C)cc(C)c2n1
IC50 (Major prion protein): 9.4 µM (active)
IC50 (cells): > 138 µM (inactive)

CCOc1cccc(OCCOc2ccc(C(=O)c3ccccc3)cc2)c1
IC50 [16]: > 69.5 µM (inactive)
IC50 [17]: > 69.5 µM (inactive)

COc1cccc(N2CCN(Cc3nc(N)nc(N4CCCc5ccccc54)n3)CC2)c1
EC50 [1]: 76.1 µM (inactive)
EC50 (Mu-type opioid receptor): 92.4 µM (inactive)

Cc1ccc2[nH]c3c(c2c1)CCc1c[nH]nc1-3
IC50 [3]: 43.4 µM (active)
IC50 [18]: 16.4 µM (not active)

COc1cc(CC(=O)Nc2ncc(C)s2)cc(OC)c1OC
IC50 [18]: 13.3 µM (not active)

Cc1ccc(S(=O)(=O)N(CCCO)CC(O)CON=C2c3ccccc3-c3ccccc32)cc1 (stereo not drawn)
EC50 [19]: 1.6 µM (active)
IC50 [16]: > 7.72 µM (active)
IC50 [17]: > 69.5 µM (inactive)
EC50 [20]: > 60 µM (not active)

c1ccc(N2CCN(Cc3ccc4c(c3)OCO4)CC2)nc1
EC50 [1]: 0.0228 µM (active)
EC50 (Mu-type opioid receptor): 92.5 µM (inactive)

COc1ccc(NC(=O)C2(C)Cc3c(-c4cccc(C(F)(F)F)c4)ccnc3O2)cn1 (stereo not drawn)
IC50 [16]: 32.4 µM (inactive)
IC50 [17]: > 69.5 µM (inactive)

C[C@@H]1CCCCO[C@H](CN(C)S(=O)(=O)c2cccs2)[C@@H](C)CN([C@H](C)CO)C(=O)c2cc(NC(=O)Nc3ccc(C(F)(F)F)cc3)ccc2O1
AC50 [21]: 4.91 µM (active)

Cc1ccc(S(=O)(=O)Nc2cccc3c2O[C@@H](CN(C)Cc2ccc(Oc4ccccc4)cc2)[C@@H](C)CN([C@H](C)CO)C3=O)cc1
AC50 [21]: 2.89 µM (active)
AC50 (Paired box protein Pax-8): 12.2 µM (active)

COc1ccc(CN(C)C[C@H]2Oc3ccc(NC(=O)Nc4ccc(C(F)(F)F)cc4)cc3CC(=O)N([C@H](C)CO)C[C@H]2C)cc1
AC50 [21]: 3.5 µM (active)

C[C@@H]1CCCCO[C@@H](CN(C)Cc2ccc(Cl)c(Cl)c2)[C@H](C)CN([C@@H](C)CO)C(=O)c2cc(NS(=O)(=O)c3ccc(Cl)cc3)ccc2O1
AC50 [22]: 44 µM (active)
AC50 (Paired box protein Pax-8): 7 µM (active)

Cc1ccccc1S(=O)(=O)N1C[C@H](O)COC[C@H]2O[C@@H](CC(=O)NCc3ccccc3Cl)CC[C@@H]21
AC50 [23]: 1.12 µM (active)
AC50 [24]: 6.43 µM (active)

C[C@@H]1CCCCO[C@@H](CN(C)Cc2ccncc2)[C@H](C)CN([C@H](C)CO)C(=O)c2cc(NC(=O)Nc3ccc(C(F)(F)F)cc3)ccc2O1
AC50 [22]: 53.8 µM (active)
AC50 (Paired box protein Pax-8): 6.48 µM (active)

C[C@H](NC(=O)C[C@@H]1CC[C@H]2[C@H](COc3ccc(NS(=O)(=O)c4ccc(Cl)cc4)cc3C(=O)N2C)O1)c1ccccc1
AC50 [25]: 9.74 µM (active)

c1ccc2c(c1)nc(N1CCOCC1)c1c3ccccc3[nH]c21
IC50 [18]: 30.4 µM (not active)
